Data published in patent US20250092014A1, “COMPOUNDS AND METHODS OF ACTIVATING LIPOPROTEIN LIPASE” (Metrea Biosciences, Inc., priority 2021, published 2025).

molecular target: T1, LPL:sGPIHBP1 complex (Homo sapiens, UniProt P06858); assay: RB assay (LPL:sGPIHBP1 pre-incubated with ANGPTL4, RB substrate); format: biochemical; settings: read-out: RB qAC50
T1 sequence (P06858 28-475): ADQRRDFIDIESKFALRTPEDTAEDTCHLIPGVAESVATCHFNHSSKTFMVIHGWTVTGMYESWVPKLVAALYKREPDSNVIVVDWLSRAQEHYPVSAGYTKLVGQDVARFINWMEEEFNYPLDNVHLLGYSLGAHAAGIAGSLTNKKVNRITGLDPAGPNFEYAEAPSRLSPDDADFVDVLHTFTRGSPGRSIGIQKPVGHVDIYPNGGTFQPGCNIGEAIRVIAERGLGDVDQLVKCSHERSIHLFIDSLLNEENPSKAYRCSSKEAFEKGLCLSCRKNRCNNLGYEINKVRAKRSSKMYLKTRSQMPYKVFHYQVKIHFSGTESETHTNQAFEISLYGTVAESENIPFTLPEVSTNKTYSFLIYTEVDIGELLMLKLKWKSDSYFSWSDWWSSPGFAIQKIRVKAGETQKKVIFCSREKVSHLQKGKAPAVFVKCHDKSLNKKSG
T1 sequence (Q8IV16 21-151 partner limits assumed): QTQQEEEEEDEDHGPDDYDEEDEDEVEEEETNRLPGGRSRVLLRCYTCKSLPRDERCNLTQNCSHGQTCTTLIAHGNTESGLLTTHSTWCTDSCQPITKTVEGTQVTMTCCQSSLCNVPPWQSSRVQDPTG
Protocol: The assay was performed in black 1536-well plates using purified proteins. To identify compounds that stimulate LPL activity either by directly activating LPL or by inhibiting the antagonist ANGPTL4, the LPL:sGPIHBP1 complex was pre-incubated with ANGPTL4 to decrease LPL activity by 80%. After a 60 min pre-incubation, the reaction was started by adding the RB substrate. 30 min after RB addition, the enzymatic reaction was stopped using SDS. Fluorescence intensity was measured 2 h after stopping the reaction.
20 or 40 nl of compound solution in 100% DMSO were placed in test plate. Then was added LPL:sGPIHBP1 to all wells (diluted in assay buffer to 5 nM; 2 μl/well). This was followed by an addition of ANGPTL4 to compounds and neutral controls (diluted in assay buffer to 20 nM; 1 μl/well). A buffer solution was added to the stimulator control (1 μl/well). The plates were then centrifuged and pre-incubated for 60 min at RT. The reaction was started by adding substrate to all wells (diluted in assay buffer to 40 μM, 1 μl/well). The plated were centrifuged (800 rpm for 1 min) and incubated 30 min at RT (=reaction time). The reaction was stopped by adding SDS to all wells (diluted in water to 2.5%, 2 μl/well); incubated 2 h at RT. The fluorescence intensity (ex 540 nm/em 590 nm) was measured on a Pherastar (BMG) using 5 flashes.

Row | SMILES | EC50
1 | O=C(O)Cc1cc(F)ccc1NC(=O)c1ccc(N2CCCCC2)c(NC(=O)c2nn(CC3CCCOC3)c3ccccc23)c1 (centres unmarked) [Compound 133, 2-(5-fluoro-2-(4-(piperidin-1-yl)-3-(1-((tetrahydro-2H-pyran-3-yl)methyl)-1H-indazole-3-carboxamido)benzamido)phenyl)acetic acid] | 4.2 µM
2 | O=C(O)Cc1cc(F)ccc1NC(=O)c1ccc(N2CCCCC2=O)c(NC(=O)c2nn(CC(F)(F)F)c3ccccc23)c1 [Example 59] | > 25 µM
3 | O=C(O)Cc1cc(F)ccc1NC(=O)c1cnc(N2CCCCC2)c(NC(=O)c2nn(CC(F)(F)F)c3ccccc23)c1 [Compound 44, 2-(5-fluoro-2-(6-(piperidin-1-yl)-5-(1-(2,2,2-trifluoroethyl)-1H-indazole-3-carboxamido)nicotinamido)phenyl)acetic acid] | > 25 µM
4 | O=C(O)Cc1cc(F)ccc1NC(=O)c1ccc(N2CCCC(F)(F)C2)c(NC(=O)c2nn(CC(F)(F)F)c3ccccc23)c1 [Example 62] | > 7.1 µM
5 | Cc1c(C(=O)Nc2ccc(F)cc2CC(=O)O)ccc(N2CCCCC2)c1NC(=O)c1nn(CC(F)(F)F)c2ccccc12 [Compound 42, 2-(5-fluoro-2-(2-methyl-4-(piperidin-1-yl)-3-(1-(2,2,2-trifluoroethyl)-1H-indazole-3-carboxamido)benzamido)phenyl)acetic acid] | > 25 µM
6 | O=C(O)Cc1cc(F)ccc1NC(=O)c1ccc(N2CCCCC2)c(NC(=O)c2nn(CC(F)(F)F)cc2C2CC2)c1 [Compound 117, 2-(2-(3-(4-cyclopropyl-1-(2,2,2-trifluoroethyl)-1H-pyrazole-3-carboxamido)-4-(piperidin-1-yl)benzamido)-5-fluorophenyl)acetic acid] | > 25 µM
7 | CCC(C(=O)O)c1cc(F)ccc1NC(=O)c1ccc(N2CCCCC2)c(NC(=O)c2nn(CC(F)(F)F)c3ccccc23)c1 (centres unmarked) [Example 28] | 4.2 µM
8 | O=C(O)Cc1cc(F)ccc1NC(=O)c1ccc(N2CCCCC2)c(NC(=O)c2cn(CC(F)(F)F)c3ccccc23)c1 [Compound 128, 2-(5-fluoro-2-(4-(piperidin-1-yl)-3-(1-(2,2,2-trifluoroethyl)-1H-indole-3-carboxamido)benzamido)phenyl)acetic acid] | 0.66 µM
9 | O=C(O)Cc1cc(F)ccc1NC(=O)c1ccc(N2CCCCC2)c(NC(=O)c2nn(CC(F)(F)F)c3ccc(F)cc23)c1 [Compound 138, 2-(5-fluoro-2-(3-(5-fluoro-1-(2,2,2-trifluoroethyl)-1H-indazole-3-carboxamido)-4-(piperidin-1-yl)benzamido)phenyl)acetic acid] | 4.8 µM
10 | CC(C)Cn1nc(C(=O)Nc2cc(C(=O)Nc3ccc(F)cc3CC(=O)O)ccc2N2CCCCC2)c2ccccc21 [Compound 95, 2-(5-fluoro-2-(3-(1-isobutyl-1H-indazole-3-carboxamido)-4-(piperidin-1-yl)benzamido)phenyl)acetic acid] | 5 µM
11 | Cc1nc(C(=O)Nc2cc(C(=O)Nc3ccc(F)cc3CC(=O)O)ccc2N2CCCCC2)n2ccccc12 [Compound 110, 2-(5-fluoro-2-(3-(1-methylimidazo[1,5-a]pyridine-3-carboxamido)-4-(piperidin-1-yl)benzamido)phenyl)acetic acid] | > 7.1 µM
12 | NC(=O)C1CCCCN1c1ccc(C(=O)Nc2ccc(F)cc2CC(=O)O)cc1NC(=O)c1nn(CC(F)(F)F)c2ccccc12 (centres unmarked) [Example 71] | > 7.1 µM
13 | O=C(O)Cc1cc(F)ccc1NC(=O)c1ccc(N2CCCCC2)c(NC(=O)c2nn(CC3CCOC3)c3ccccc23)c1 (centres unmarked) [Compound 118, 2-(5-fluoro-2-(4-(piperidin-1-yl)-3-(1-((tetrahydrofuran-3-yl)methyl)-1H-indazole-3-carboxamido)benzamido)phenyl)acetic acid] | > 7.1 µM
14 | O=C(O)Cc1cc(F)ccc1NC(=O)c1ccc(N2CCC2)c(NC(=O)c2nn(CC(F)(F)F)c3ccccc23)c1 [Compound 39, 2-(2-(4-(azetidin-1-yl)-3-(1-(2,2,2-trifluoroethyl)-1H-indazole-3-carboxamido)benzamido)-5-fluorophenyl)acetic acid] | > 25 µM
